Source: ChEMBL document CHEMBL1681742, “Novel second generation analogs of eribulin. Part I: Compounds containing a lipophilic C32 side chain overcome P-glycoprotein susceptibility” (Bioorg Med Chem Lett, 2011)
The source made the active and inactive calls. The calls are words filed in the database; no cut-off is given here.

Legend:
[1] = Antiproliferative activity against human MES-SA cells assessed as growth inhibition; assay type: functional, cell-based
[2] = Antiproliferative activity against P-gp overexpressing human MES-SA/Dx5-Rx1 cells assessed as growth inhibition; assay type: functional
[3] = test system: DLD-1; experiment: Antiproliferative activity against human DLD1 cells assessed as growth inhibition; assay type: functional, cell-based
[4] = test system: HCT-15; experiment: Antiproliferative activity against human HCT15 cells assessed as growth inhibition; assay type: functional, cell-based
[5] = Cytotoxicity against human IMR90 cells up to 1 uM; assay type: cell-based; conditions: imr-90
[6] = test system: LOX; experiment: Antitumor activity against human LOX cells xenografted in athymic mouse assessed as inhibition of tumor growth at 0.1 mg/kg, iv qd administered 5 days a week for 2 weeks measured up to 2 weeks; assay type: functional, organism-based; parameters: dose 0.1 mg/kg
[7] = Fold resistance, ratio of IC50 for antiproliferative activity for P-gp overexpressing human MES-SA/Dx5-Rx1cells to IC50 for antiproliferative activity for human MES-SA cells
[8] = test system: LOX; experiment: Antitumor activity against human LOX cells xenografted in athymic mouse assessed as inhibition of tumor growth at 0.1 mg/kg, iv qd administered 5 days a week for 2 weeks measured after 2 weeks; assay type: functional, organism-based; parameters: dose 0.1 mg/kg
[9] = test system: Mus musculus; experiment: Toxicity in athymic mouse xenografted with human LOX cells assessed as body weight loss at 0.1 mg/kg, iv qd administered 5 days a week for 2 weeks; assay type: organism-based; parameters: dose 0.1 mg/kg, route intravenous; conditions: in vivo
[10] = test system: Mus musculus; experiment: Toxicity in athymic mouse xenografted with human LOX cells assessed as reduction in water uptake at 0.1 mg/kg, iv qd administered 5 days a week for 2 weeks; assay type: organism-based; parameters: dose 0.1 mg/kg, route intravenous; conditions: in vivo

IC50 [3] [nM]	IC50 [4] [nM]	Compound	IC50 [1] [nM]	IC50 [2] [nM]	Activity [5]	Activity [6]	Ratio IC50 [7]	Activity [8]	Activity [9]	Activity [10]
0.27	0.2	C=C1C[C@@H]2CC[C@@]34C[C@H]5O[C@H]6[C@@H](O3)[C@H]3O[C@H](CC[C@@H]3O[C@H]6[C@H]5O4)CC(=O)C[C@@H]3[C@@H](OC)[C@@H](C[C@H](O)COC)O[C@H]3C[C@H]3O[C@@H](CC[C@@H]1O2)C[C@@H](C)C3=C	0.17	2.82	Non-toxic	Active	17.09	inactive	Non-toxic	Non-toxic
0.36	0.21	C=C1C[C@@H]2CC[C@@]34C[C@H]5O[C@H]6[C@@H](O3)[C@H]3O[C@H](CC[C@@H]3O[C@H]6[C@H]5O4)CC(=O)C[C@@H]3[C@@H](OC)[C@@H](C[C@@H](COC)OC)O[C@H]3C[C@H]3O[C@@H](CC[C@@H]1O2)C[C@@H](C)C3=C	0.24	1.86	Non-toxic	Active	7.76	inactive	Non-toxic	Non-toxic

Compound	IC50 [3] [nM]	IC50 [4] [nM]	IC50 [1] [nM]	IC50 [2] [nM]	Activity [5]	Activity [6]	Ratio IC50 [7]	Activity [8]	Activity [9]	Activity [10]
C=C1C[C@@H]2CC[C@@]34C[C@H]5O[C@H]6[C@@H](O3)[C@H]3O[C@H](CC[C@@H]3O[C@H]6[C@H]5O4)CC(=O)C[C@@H]3[C@@H](OC)[C@@H](C[C@H](O)CN)O[C@H]3C[C@H]3O[C@@H](CC[C@@H]1O2)C[C@@H](C)C3=C [ERIBULIN]	20	204	1.66	3060	Non-toxic	Active	1842			
